Reference: patent publication US20250092039A1, “GLUTARIMIDE-CONTAINING PAN-KRAS-MUTANT DEGRADER COMPOUNDS AND USES THEREOF” (Tiger Biotherapeutics Inc., priority 2022, published 2025)
Like-named read-outs stand apart in the source and are kept apart here.

Experiments:
[1] = Pharmacokinetics following single intravenous and oral gavage dosing (AUC0-24h); assay type: in vivo; conditions: mouse, plasma, male CD-1 mice
Description: Compounds disclosed herein were studied for animal tolerability and pharmacokinetics following single intravenous (iv) and oral gavage (po) dosing to male CD-1 mice. For each compound in each dosing route, 3 mice were used with iv dosing volume of 5 mL/kg and po dosing volume of 10 mL/kg. The compounds were formulated in 10% DMSO, 30% PEG400, 60% aqueous solution containing 20% 2-hydroxypropyl-β-cyclodextrin. Blood sampling time points for iv dosing were 0.083, 0.25, 0.5, 1, 2, 4, 8 and 24 h. The sampling time points for po dosing were 0.25, 0.5, 1, 2, 4, 6, 8 and 24 h. Mice activities were monitored and recorded immediately following the dosing. The prepared plasma samples were analyzed using LC/MS/MS on AB Sciex Triple Quad 5500+ system. The PK parameters were determined by non-compartmental analysis using WinNonlin (Version 8.0).

[2] = tested on: SW620 cells; assay: 3D cell growth inhibition of SW620 cells carrying endogenous KRAS G12V mutation (CellTiter-Glo 3D, GI50); assay type: cell-based; conditions: Homo sapiens, SW-620, 144 h, read-out: SW620 3D cell growth GI50
Outline: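 SW620 cells (endogenous KRAS G12V) grown in 3D were dosed next day with compound from DMSO stocks at various concentrations, then incubated 6 days at 37° C.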

[3] = molecular target: KRAS-G12V/RAF1 (Homo sapiens (Human), UniProt P01116, G12V); assay: KRAS/RAF1 binding inhibition assay (AlphaScreen)
Chain of KRAS-G12V/RAF1 (P01116-2 other isoform, or with tags, fused parts or gaps G12V): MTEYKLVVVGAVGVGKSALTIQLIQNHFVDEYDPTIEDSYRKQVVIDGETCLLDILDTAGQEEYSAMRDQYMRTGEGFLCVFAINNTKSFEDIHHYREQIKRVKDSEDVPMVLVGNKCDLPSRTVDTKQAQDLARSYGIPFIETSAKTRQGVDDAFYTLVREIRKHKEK
Outline: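 Binding of GppNHp-loaded KRAS G12V to the RAF1 RBD was measured by AlphaScreen with test compound present in 2% DMSO (final), 60 min incubation at 4° C. Signals were converted to % inhibition versus DMSO, and IC50 was obtained by variable-slope nonlinear regression.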

[4] = molecular target: KRAS G12V (Homo sapiens (Human), UniProt P01116, G12V); assay: KRAS G12V degradation in SW620 cells (Western blot, DC50); assay type: cell-based; conditions: 24 hours
Chain of KRAS G12V (P01116-2 other isoform, or with tags, fused parts or gaps G12V): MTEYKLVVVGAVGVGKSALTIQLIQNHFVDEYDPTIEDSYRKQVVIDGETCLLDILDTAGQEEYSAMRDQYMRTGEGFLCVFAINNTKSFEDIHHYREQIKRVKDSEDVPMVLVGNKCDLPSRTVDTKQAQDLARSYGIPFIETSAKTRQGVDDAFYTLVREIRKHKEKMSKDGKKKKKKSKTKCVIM
Outline: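 SW620 cells (homozygous KRAS G12V) were treated with compound for 24 hours at 37° C. KRAS in lysates was measured by Western blot with fluorescent secondary antibodies and expressed relative to DMSO vehicle (100%). DC50 came from a four-parameter variable-slope dose-response fit.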

| Structure (SMILES) | AUC(0-t) ([1]; single oral dose 30 mg/Kg) [ng·h/mL] | GI50 ([2]; SW620 cells, 6 days) [nM] | IC50 [3] [nM] | DC50 [4] [nM] | AUC(0-t) ([1]; single oral dose 50 mg/Kg) [ng·h/mL] | GI50 [2] [nM] |
| --- | --- | --- | --- | --- | --- | --- |
| CCc1c(F)ccc2cc(O)cc(-c3ncc4c(N5CCC[C@@](C)(O)C5)nc(OCC5(CN6CC(F)(CN7CC8(CCN(c9ccc%10c(c9)CN([C@H]9CCC(=O)NC9=O)C%10=O)CC8)C7)C6)CC5)nc4c3F)c12 [Compound 68, (S)-3-(5-(2-((1-((1-(((7-(8-ethyl-7-fluoro-3-hydroxynaphthalen-1-yl)-8-fluoro-4-((R)-3-hydroxy-3-methylpiperidin-1-yl)pyrido[4,3-d]pyrimidin-2-yl)oxy)methyl)cyclopropyl)methyl)-3-fluoroazetidin-3-yl)methyl)-2,7-diazaspiro[3.5]nonan-7-yl)-1-oxoisoindolin-2-yl)piperidine-2,6-dione] | 901 | < 10 | > 200 | 1 to 10 | – | – |
| CCc1c(F)ccc2cc(O)cc(-c3ncc4c(N5CCC[C@]6(CCO6)C5)nc(OCC5(CN6CCC(F)(CN7CCN(c8ccc9c(c8)CN([C@H]8CCC(=O)NC8=O)C9=O)CC7)CC6)CC5)nc4c3F)c12 [Compound 86, (S)-3-(5-(4-((1-((1-(((7-(8-ethyl-7-fluoro-3-hydroxynaphthalen-1-yl)-8-fluoro-4-((S)-1-oxa-6-azaspiro[3.5]nonan-6-yl)pyrido[4,3-d]pyrimidin-2-yl)oxy)methyl)cyclopropyl)methyl)-4-fluoropiperidin-4-yl)methyl)piperazin-1-yl)-1-oxoisoindolin-2-yl)piperidine-2,6-dione] | 1320 | < 10 | 20 to 200 | < 1 | – | – |
| CCc1c(F)ccc2cc(O)cc(-c3ncc4c(N5CCC[C@@](C)(O)C5)nc(OCC5(CN6CCC7(CCC(N8CCN(c9ccc%10c(c9)CN([C@H]9CCC(=O)NC9=O)C%10=O)CC8)CC7)CC6)CC5)nc4c3F)c12 [Compound 120, (S)-3-(5-(4-(3-((1-(((7-(8-ethyl-7-fluoro-3-hydroxynaphthalen-1-yl)-8-fluoro-4-((R)-3-hydroxy-3-methylpiperidin-1-yl)pyrido[4,3-d]pyrimidin-2-yl)oxy)methyl)cyclopropyl)methyl)-3-azaspiro[5.5]undecan-9-yl)piperazin-1-yl)-1-oxoisoindolin-2-yl)piperidine-2,6-dione] | – | < 10 | < 20 | 1 to 10 | 255 | – |
| CCc1c(F)ccc2cc(O)cc(-c3ncc4c(N5CCC[C@@](C)(O)C5)nc(OCC5(CN6CCC7(CC6)CC(N6CCN(c8ccc9c(c8)CN([C@H]8CCC(=O)NC8=O)C9=O)CC6)C7)CC5)nc4c3F)c12 [Compound 121, (S)-3-(5-(4-(7-((1-(((7-(8-ethyl-7-fluoro-3-hydroxynaphthalen-1-yl)-8-fluoro-4-((R)-3-hydroxy-3-methylpiperidin-1-yl)pyrido[4,3-d]pyrimidin-2-yl)oxy)methyl)cyclopropyl)methyl)-7-azaspiro[3.5]nonan-2-yl)piperazin-1-yl)-1-oxoisoindolin-2-yl)piperidine-2,6-dione] | – | < 10 | < 20 | < 1 | 598 | – |
| CCc1c(F)ccc2cc(O)cc(-c3ncc4c(N5CCC[C@@](C)(O)C5)nc(OCC5(CN6CCC7(CC6)CC(F)(CN6CCN(c8ccc9c(c8)CN([C@H]8CCC(=O)NC8=O)C9=O)CC6)C7)CC5)nc4c3F)c12 [Compound 134, (S)-3-(5-(4-((7-((1-(((7-(8-ethyl-7-fluoro-3-hydroxynaphthalen-1-yl)-8-fluoro-4-((R)-3-hydroxy-3-methylpiperidin-1-yl)pyrido[4,3-d]pyrimidin-2-yl)oxy)methyl)cyclopropyl)methyl)-2-fluoro-7-azaspiro[3.5]nonan-2-yl)methyl)piperazin-1-yl)-1-oxoisoindolin-2-yl)piperidine-2,6-dione] | 982 | – | 20 to 200 | < 1 | 1940 | < 10 |
| CCc1c(F)ccc2cc(O)cc(-c3ncc4c(N5CCC[C@@](C)(O)C5)nc(OCC5(CN6CCC(OC7CC8(CCN(c9ccc%10c(c9)CN(C9CCC(=O)NC9=O)C%10=O)CC8)C7)CC6)CC5)nc4c3F)c12 (stereo partly drawn) [Compound 182, 3-[5-[2-[[1-[[1-[[7-(8-ethyl-7-fluoro-3-hydroxy-1-naphthyl)-8-fluoro-4-[(3R)-3-hydroxy-3-methyl-1-piperidyl]pyrido[4,3-d]pyrimidin-2-yl]oxymethyl]cyclopropyl]methyl]-4-piperidyl]oxy]-7-azaspiro[3.5]nonan-7-yl]-1-oxo-isoindolin-2-yl]piperidine-2,6-dione] | 4900 | < 10 | 20 to 200 | < 1 | – | – |
| CCc1c(F)ccc2cc(O)cc(-c3ncc4c(N5CCC[C@@](C)(O)C5)nc(OCC5(CN6CCC(OC7CCC8(CC7)CN(c7ccc9c(c7)CN(C7CCC(=O)NC7=O)C9=O)C8)CC6)CC5)nc4c3F)c12 (stereo partly drawn) [Compound 184, 3-[5-[7-[[1-[[1-[[7-(8-ethyl-7-fluoro-3-hydroxy-1-naphthyl)-8-fluoro-4-[(3R)-3-hydroxy-3-methyl-1-piperidyl]pyrido[4,3-d]pyrimidin-2-yl]oxymethyl]cyclopropyl]methyl]-4-piperidyl]oxy]-2-azaspiro[3.5]nonan-2-yl]-1-oxo-isoindolin-2-yl]piperidine-2,6-dione] | 12500 | < 10 | > 200 | < 1 | – | – |
| CCc1c(F)ccc2cc(O)cc(-c3ncc4c(N5CCC[C@@](C)(O)C5)nc(OCC5(CN6CCC(C)(CN7CCC(N8CCN(c9ccc%10c(c9)CN([C@H]9CCC(=O)NC9=O)C%10=O)CC8)CC7)CC6)CC5)nc4c3F)c12 [Compound 213, (S)-3-(5-(4-(1-((1-((1-(((7-(8-ethyl-7-fluoro-3-hydroxynaphthalen-1-yl)-8-fluoro-4-((R)-3-hydroxy-3-methylpiperidin-1-yl)pyrido[4,3-d]pyrimidin-2-yl)oxy)methyl)cyclopropyl)methyl)-4-methylpiperidin-4-yl)methyl)piperidin-4-yl)piperazin-1-yl)-1-oxoisoindolin-2-yl)piperidine-2,6-dione] | 1360 | < 10 | < 20 | < 1 | – | – |
| CCc1c(F)ccc2cc(O)cc(-c3ncc4c(N5CCC[C@]6(CCO6)C5)nc(OCC5(CN6CCC7(CC6)CC(F)(CN6CCN(c8ccc9c(c8)CN([C@H]8CCC(=O)NC8=O)C9=O)CC6)C7)CC5)nc4c3F)c12 [Compound 214, (S)-3-(5-(4-((7-((1-(((7-(8-ethyl-7-fluoro-3-hydroxynaphthalen-1-yl)-8-fluoro-4-((S)-1-oxa-6-azaspiro[3.5]nonan-6-yl)pyrido[4,3-d]pyrimidin-2-yl)oxy)methyl)cyclopropyl)methyl)-2-fluoro-7-azaspiro[3.5]nonan-2-yl)methyl)piperazin-1-yl)-1-oxoisoindolin-2-yl)piperidine-2,6-dione] | 1460 | < 10 | 20 to 200 | < 1 | – | – |
| CCc1c(F)ccc2cc(O)cc(-c3ncc4c(N5CCC[C@]6(CCO6)C5)nc(OCC5(CN6CCC7(CC6)CC(F)(CN6CCN(c8cc(F)c(C9CCC(=O)NC9=O)c(F)c8)CC6)C7)CC5)nc4c3F)c12 (stereo partly drawn) [Compound 215, 3-(4-(4-((7-((1-(((7-(8-ethyl-7-fluoro-3-hydroxynaphthalen-1-yl)-8-fluoro-4-((S)-1-oxa-6-azaspiro[3.5]nonan-6-yl)pyrido[4,3-d]pyrimidin-2-yl)oxy)methyl)cyclopropyl)methyl)-2-fluoro-7-azaspiro[3.5]nonan-2-yl)methyl)piperazin-1-yl)-2,6-difluorophenyl)piperidine-2,6-dione] | 4710 | < 10 | 20 to 200 | < 1 | – | – |
